Measured values: ChEMBL document CHEMBL5465560, “Selectivity Literature for EUbOPEN Chemogenomic Library” (2024)

What was measured:
[1] = biological target: Transient receptor potential cation channel subfamily M member 6 (Homo sapiens) (UniProt Q9BX84); assay: Selectivity interaction (KinomeScan (DiscoverX)) EUB0000595a TRPM6; details: at 10 µM
[2] = biological target: T1, Histone-arginine methyltransferase CARM1 (Homo sapiens) (UniProt Q86X55); details: U-266, at 3 µM
T1 sequence (whole entry): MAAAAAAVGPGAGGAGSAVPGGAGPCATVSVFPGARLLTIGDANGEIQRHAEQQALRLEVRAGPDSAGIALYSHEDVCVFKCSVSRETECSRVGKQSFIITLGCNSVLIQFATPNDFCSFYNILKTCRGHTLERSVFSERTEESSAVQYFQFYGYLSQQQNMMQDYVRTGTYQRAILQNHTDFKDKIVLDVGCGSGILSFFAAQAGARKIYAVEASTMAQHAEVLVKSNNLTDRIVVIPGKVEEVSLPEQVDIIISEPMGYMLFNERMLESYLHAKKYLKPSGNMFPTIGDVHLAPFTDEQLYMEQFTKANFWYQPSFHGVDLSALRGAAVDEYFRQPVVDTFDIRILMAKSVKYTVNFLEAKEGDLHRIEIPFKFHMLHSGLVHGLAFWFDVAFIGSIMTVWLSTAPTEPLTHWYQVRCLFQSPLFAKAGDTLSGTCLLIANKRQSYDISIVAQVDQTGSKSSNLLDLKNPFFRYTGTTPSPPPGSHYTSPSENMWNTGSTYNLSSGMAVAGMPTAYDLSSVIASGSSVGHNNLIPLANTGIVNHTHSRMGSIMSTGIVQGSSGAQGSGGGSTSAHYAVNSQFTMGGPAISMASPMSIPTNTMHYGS

Activated CDC42 kinase 1 = Activated CDC42 kinase 1 (Homo sapiens, UniProt Q07912); assay: Selectivity interaction (KinomeScan (DiscoverX)) EUB0001619a TNK2; details: at 1 µM
Sequence of Activated CDC42 kinase 1 (Q07912 whole entry, looked up): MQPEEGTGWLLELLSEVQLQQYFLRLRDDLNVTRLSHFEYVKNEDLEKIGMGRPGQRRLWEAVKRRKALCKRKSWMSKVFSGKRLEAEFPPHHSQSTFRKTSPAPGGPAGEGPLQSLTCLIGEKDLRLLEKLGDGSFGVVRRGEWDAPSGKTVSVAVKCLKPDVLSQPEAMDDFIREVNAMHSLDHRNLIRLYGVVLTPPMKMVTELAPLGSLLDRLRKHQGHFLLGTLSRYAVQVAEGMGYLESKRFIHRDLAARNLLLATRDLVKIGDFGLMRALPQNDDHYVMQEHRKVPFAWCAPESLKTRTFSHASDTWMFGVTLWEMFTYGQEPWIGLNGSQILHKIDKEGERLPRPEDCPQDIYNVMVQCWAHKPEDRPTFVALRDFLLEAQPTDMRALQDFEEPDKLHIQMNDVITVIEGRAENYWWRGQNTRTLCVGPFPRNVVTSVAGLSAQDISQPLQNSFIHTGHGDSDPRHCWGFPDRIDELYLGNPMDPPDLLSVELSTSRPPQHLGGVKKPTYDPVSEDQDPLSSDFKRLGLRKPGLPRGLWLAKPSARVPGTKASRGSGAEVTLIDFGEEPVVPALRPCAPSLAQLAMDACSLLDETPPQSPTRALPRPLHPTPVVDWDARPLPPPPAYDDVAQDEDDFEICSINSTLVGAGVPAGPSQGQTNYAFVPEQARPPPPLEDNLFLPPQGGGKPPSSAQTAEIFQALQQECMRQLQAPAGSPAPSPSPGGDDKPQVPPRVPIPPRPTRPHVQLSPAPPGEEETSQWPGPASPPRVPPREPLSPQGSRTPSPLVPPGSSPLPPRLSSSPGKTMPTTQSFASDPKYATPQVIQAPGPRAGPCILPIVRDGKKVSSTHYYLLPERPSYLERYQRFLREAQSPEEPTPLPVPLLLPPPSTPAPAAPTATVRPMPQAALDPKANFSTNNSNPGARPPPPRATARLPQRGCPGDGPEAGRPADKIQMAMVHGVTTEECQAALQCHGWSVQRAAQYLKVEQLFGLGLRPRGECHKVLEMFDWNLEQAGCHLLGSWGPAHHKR

[3] = biological target: T2, Serine/threonine-protein kinase 17A (Homo sapiens) (UniProt Q9UEE5); assay: Selectivity interaction (Kinase panel (DSF assay)) EUB0001489b STK17A
T2 sequence (whole entry): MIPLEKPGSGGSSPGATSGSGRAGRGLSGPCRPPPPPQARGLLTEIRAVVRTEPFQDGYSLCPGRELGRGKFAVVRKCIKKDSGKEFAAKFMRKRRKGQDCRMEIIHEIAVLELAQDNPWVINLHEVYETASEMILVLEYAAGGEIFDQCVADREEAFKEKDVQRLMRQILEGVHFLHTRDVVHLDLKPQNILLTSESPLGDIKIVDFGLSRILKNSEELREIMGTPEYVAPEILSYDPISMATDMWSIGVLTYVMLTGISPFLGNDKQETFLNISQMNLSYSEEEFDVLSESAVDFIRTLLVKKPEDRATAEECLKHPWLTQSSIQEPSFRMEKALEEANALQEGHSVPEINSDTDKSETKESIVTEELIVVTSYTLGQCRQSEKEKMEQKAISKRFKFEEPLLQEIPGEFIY

[4] = biological target: T3, Ephrin type-A receptor 6 (Homo sapiens) (UniProt Q9UF33); assay: Selectivity interaction (KinomeScan (DiscoverX)) EUB0000607a EPHA6; details: at 10 µM
T3 sequence (whole entry): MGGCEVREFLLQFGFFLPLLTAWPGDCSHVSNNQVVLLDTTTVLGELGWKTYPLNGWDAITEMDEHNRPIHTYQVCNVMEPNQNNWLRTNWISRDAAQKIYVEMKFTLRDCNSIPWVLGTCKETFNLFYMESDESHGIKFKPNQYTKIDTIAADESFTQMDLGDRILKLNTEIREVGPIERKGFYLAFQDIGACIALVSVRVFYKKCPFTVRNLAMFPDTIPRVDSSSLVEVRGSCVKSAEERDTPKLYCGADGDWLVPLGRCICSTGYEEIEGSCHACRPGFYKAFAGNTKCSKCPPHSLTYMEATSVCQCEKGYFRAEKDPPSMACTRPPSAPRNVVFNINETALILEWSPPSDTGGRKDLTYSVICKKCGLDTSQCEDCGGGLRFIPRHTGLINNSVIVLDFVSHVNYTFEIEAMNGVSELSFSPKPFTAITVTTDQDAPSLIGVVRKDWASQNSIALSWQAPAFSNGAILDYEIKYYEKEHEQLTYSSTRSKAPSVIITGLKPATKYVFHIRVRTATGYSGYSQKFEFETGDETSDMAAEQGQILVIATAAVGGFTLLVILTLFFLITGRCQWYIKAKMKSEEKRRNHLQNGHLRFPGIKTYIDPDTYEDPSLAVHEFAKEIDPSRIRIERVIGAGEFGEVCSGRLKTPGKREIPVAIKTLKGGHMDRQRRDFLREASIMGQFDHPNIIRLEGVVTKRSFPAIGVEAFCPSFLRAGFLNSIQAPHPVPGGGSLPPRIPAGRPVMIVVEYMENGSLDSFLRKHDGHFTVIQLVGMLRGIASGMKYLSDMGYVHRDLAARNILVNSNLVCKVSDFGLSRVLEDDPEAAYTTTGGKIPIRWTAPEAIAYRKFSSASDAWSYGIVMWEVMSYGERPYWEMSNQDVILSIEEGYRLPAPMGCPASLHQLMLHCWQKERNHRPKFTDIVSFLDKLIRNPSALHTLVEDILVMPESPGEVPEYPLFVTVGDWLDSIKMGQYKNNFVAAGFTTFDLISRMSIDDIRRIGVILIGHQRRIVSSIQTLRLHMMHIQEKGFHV

[5] = biological target: Serine/threonine-protein kinase B-raf (Homo sapiens) (UniProt P15056); assay: Selectivity interaction (Kinase panel (Invitrogen)) EUB0000639a BRAF; details: at 200 nM
Insulin receptor = Insulin receptor (Homo sapiens, UniProt P06213); assay: Selectivity interaction (ActivX KiNativ screen (kinase selectivity in THP-1 cell lysates)) EUB0000639a INSR; format: subcellular; details: lysate
Sequence of Insulin receptor (P06213 28-758 limits assumed): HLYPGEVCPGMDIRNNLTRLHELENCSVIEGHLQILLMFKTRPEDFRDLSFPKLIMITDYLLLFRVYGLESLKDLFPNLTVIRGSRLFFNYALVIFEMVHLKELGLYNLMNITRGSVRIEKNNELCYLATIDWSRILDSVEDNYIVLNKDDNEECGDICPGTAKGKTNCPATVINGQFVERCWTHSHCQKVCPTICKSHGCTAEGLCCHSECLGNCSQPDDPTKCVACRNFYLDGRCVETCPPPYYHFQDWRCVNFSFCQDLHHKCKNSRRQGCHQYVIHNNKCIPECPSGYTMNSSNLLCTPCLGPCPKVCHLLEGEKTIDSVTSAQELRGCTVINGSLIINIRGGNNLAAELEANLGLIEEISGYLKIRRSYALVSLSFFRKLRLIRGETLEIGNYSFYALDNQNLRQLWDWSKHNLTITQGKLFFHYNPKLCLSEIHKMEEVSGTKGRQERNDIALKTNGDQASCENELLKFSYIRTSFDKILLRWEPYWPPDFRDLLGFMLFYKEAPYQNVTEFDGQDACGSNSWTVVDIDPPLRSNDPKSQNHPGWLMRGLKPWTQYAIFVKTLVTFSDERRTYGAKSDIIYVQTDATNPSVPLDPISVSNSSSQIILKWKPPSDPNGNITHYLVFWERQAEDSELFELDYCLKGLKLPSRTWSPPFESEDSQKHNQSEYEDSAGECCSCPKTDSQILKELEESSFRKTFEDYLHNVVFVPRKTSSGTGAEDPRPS
Sequence of Insulin receptor (P06213 763-1382 limits assumed): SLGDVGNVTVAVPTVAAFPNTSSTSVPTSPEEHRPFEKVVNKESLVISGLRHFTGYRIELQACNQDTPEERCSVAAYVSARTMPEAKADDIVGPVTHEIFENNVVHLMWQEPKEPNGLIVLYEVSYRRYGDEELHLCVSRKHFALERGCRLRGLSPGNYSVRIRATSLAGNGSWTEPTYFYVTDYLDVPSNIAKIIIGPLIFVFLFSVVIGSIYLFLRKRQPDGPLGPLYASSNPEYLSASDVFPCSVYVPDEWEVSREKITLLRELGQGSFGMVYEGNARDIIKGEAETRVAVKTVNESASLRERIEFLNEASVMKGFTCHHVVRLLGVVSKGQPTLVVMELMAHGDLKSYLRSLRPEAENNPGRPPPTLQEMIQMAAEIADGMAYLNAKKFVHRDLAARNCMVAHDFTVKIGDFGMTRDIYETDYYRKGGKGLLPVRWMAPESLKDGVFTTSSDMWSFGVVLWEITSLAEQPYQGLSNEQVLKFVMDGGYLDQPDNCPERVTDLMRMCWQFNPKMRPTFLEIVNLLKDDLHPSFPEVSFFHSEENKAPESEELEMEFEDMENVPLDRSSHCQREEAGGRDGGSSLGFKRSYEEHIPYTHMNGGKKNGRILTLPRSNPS

[6] = biological target: Serine/threonine-protein kinase 33 (Homo sapiens) (UniProt Q9BYT3); details: at 10 µM
Sequence of Serine/threonine-protein kinase 33 (Homo sapiens) (Q9BYT3 whole entry, looked up): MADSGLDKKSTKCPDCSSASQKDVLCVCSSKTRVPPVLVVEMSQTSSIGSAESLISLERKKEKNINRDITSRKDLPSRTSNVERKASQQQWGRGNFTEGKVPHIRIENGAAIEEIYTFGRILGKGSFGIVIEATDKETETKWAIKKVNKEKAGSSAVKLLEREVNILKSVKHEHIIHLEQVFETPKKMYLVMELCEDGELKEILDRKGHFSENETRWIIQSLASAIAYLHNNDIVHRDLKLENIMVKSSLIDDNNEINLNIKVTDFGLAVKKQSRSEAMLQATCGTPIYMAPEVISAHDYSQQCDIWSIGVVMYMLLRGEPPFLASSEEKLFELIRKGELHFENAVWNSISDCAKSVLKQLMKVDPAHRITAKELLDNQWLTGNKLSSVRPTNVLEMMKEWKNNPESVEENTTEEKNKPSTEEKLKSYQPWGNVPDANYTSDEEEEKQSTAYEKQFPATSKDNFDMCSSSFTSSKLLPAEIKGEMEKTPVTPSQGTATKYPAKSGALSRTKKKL

[7] = biological target: Cyclin-dependent kinase 11B (Homo sapiens) (UniProt P21127); assay: Selectivity interaction (Ambit KINOMEscan and KiNATiv profiling in Jurkat cells) EUB0000090b CDK11B; format: cell-based; details: at 1 µM

Sequence of Transient receptor potential cation channel subfamily M member 6 (Homo sapiens) (Q9BX84 whole entry): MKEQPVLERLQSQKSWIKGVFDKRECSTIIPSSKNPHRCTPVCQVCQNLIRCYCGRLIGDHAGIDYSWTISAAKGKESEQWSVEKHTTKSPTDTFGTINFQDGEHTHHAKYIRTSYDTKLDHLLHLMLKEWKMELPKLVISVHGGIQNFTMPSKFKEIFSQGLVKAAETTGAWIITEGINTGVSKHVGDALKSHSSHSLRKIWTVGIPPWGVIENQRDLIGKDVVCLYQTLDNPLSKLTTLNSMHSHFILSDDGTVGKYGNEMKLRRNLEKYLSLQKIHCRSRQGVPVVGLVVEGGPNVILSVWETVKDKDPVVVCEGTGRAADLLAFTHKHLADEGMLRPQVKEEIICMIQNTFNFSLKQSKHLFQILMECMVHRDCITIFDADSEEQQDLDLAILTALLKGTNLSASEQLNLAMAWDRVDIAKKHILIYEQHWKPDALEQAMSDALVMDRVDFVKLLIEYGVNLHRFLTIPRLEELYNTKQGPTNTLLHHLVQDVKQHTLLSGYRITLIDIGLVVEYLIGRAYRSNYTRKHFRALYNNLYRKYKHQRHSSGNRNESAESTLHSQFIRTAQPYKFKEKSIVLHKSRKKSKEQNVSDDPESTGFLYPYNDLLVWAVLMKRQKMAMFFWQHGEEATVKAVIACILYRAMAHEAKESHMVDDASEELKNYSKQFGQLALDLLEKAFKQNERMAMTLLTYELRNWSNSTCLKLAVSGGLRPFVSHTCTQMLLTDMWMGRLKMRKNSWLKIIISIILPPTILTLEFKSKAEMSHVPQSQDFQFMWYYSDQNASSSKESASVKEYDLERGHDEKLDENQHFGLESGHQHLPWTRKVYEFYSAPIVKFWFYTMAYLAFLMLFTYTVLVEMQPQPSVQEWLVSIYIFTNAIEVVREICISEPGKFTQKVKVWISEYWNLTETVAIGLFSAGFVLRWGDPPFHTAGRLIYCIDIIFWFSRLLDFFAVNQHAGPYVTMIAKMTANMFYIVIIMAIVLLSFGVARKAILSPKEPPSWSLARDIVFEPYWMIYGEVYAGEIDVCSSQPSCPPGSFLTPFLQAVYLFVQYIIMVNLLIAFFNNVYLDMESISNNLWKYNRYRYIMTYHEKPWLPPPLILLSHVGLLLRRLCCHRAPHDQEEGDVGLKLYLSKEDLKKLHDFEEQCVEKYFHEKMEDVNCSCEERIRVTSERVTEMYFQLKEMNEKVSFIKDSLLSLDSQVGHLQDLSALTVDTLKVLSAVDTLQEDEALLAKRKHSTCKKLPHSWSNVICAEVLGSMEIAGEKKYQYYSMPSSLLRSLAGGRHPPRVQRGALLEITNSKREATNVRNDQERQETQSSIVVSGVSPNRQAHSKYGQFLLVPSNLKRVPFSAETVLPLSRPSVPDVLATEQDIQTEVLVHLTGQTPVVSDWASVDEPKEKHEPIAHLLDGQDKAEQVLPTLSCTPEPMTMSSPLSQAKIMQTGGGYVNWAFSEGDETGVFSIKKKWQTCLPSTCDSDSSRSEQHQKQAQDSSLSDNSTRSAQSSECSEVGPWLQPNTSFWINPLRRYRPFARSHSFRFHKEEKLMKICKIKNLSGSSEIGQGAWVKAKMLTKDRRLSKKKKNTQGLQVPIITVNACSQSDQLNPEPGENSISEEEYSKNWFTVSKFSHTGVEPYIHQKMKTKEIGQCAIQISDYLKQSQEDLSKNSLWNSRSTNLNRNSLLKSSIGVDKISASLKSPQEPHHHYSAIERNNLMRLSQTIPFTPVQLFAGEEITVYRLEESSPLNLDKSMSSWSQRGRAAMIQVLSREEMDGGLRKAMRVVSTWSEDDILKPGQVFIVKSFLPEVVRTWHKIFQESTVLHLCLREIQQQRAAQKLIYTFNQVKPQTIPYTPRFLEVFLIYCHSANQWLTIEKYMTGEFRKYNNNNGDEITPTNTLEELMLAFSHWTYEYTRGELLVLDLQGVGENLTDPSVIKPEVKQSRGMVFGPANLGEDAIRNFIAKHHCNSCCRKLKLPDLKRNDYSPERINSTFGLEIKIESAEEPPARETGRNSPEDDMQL

COCC(=O)NC/C=C/c1ccc2ncnc(Nc3ccc(Oc4ccc(C)nc4)c(C)c3)c2c1 [CP-724714]
% of control [1]: 100%

CNCCN1CCC(c2cc(CN(C)C(=O)c3cccc(Oc4ccccc4)c3)ccn2)CC1
% of growth rate [2]: -24.4%

N#Cc1cccc(-c2c[nH]c3ncnc(N4CCOCC4)c23)c1
% of control (Activated CDC42 kinase 1): 98%

CN1CCN(C(=O)c2ccc3cc2OCCOCCNc2ccn4ncc-3c4n2)CC1
dTM [3]: 1.5 K

CNC(=O)Nc1ccc(-c2nc(N3CC4CCC(C3)O4)c3cnn(C4CCC5(CC4)OCCO5)c3n2)cc1
% of control [4]: 98%

CC[C@@H]1[C@H](F)C(=O)N[C@@H]1COc1nccc2cc(C(N)=O)c(OC)cc12 [ZIMLOVISERTIB]
% of inhibition [5]: 2.21%
% of inhibition (Insulin receptor; at 0.01 µM): -44.7%
% of inhibition (Insulin receptor; at 0.04 µM): 10.7%
% of inhibition (Insulin receptor; at 0.2 µM): -15.5%
% of inhibition (Insulin receptor; at 1 µM): -21.5%
% of inhibition (Insulin receptor; at 5 µM): -37.4%

CCN(CC)CCCCNc1ncc2cc(-c3cc(OC)cc(OC)c3)c(NC(=O)NC(C)(C)C)nc2n1
% of control [6]: 100%

CN(C)C/C=C/C(=O)Nc1ccc(C(=O)N2CCCC(Nc3ncc(Cl)c(-c4c[nH]c5ccccc45)n3)C2)cc1 (stereo not drawn)
% of control [7]: 100%
